In PubChem BioAssay (NCI):
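These data come from cells grown in 96-well plates and exposed to compound for 48 hours at five concentrations. Here, GI50 denotes the concentration required for 50% inhibition of growth. TGI: concentration producing complete growth inhibition.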

Experiments:
Assay in all cases: NCI-60 cell line screen, 48 h
A549 NSCLC = tested on: A549 NSCLC
EKVX NSCLC = tested on: EKVX NSCLC
KM12 colon = tested on: KM12 colon
HCC-2998 colon = tested on: HCC-2998 colon
SF-539 CNS = tested on: SF-539 CNS
IGROV1 ovarian = tested on: IGROV1 ovarian
U251 CNS = tested on: U251 CNS
SN12C renal = tested on: SN12C renal
HL-60(TB) leukemia = tested on: HL-60(TB) leukemia
K-562 leukemia = tested on: K-562 leukemia
M14 melanoma = tested on: M14 melanoma
PC-3 prostate = tested on: PC-3 prostate
MDA-MB-468 breast = tested on: MDA-MB-468 breast
HCT-15 colon = tested on: HCT-15 colon
NCI-H522 lung = tested on: NCI-H522 lung
SF-295 CNS = tested on: SF-295 CNS
HS 578T breast = tested on: HS 578T breast
MDA-MB-435 = tested on: MDA-MB-435
NCI-H460 lung = tested on: NCI-H460 lung
DU-145 prostate = tested on: DU-145 prostate
786-0 renal = tested on: 786-0 renal
RPMI-8226 leukemia = tested on: RPMI-8226 leukemia
RXF 393 renal = tested on: RXF 393 renal
COLO 205 colon = tested on: COLO 205 colon
HT29 colon = tested on: HT29 colon
NCI-H23 lung = tested on: NCI-H23 lung
SK-MEL-28 melanoma = tested on: SK-MEL-28 melanoma
OVCAR-3 ovarian = tested on: OVCAR-3 ovarian

## N#Cc1c(-c2ccc(F)cc2)nc(SCc2ccc(F)cc2)nc1N1CCNCC1
A549 NSCLC
  TGI: 25 µM
EKVX NSCLC
  GI50: 13.1 µM
  TGI: 26.4 µM
KM12 colon
  GI50: 18 µM
  TGI: 33.6 µM
HCC-2998 colon
  GI50: 2530 nM
  TGI: 6.27 µM
SF-539 CNS
  GI50: 15.6 µM
  TGI: 29 µM
IGROV1 ovarian
  GI50: 15.6 µM
  TGI: 29.8 µM
U251 CNS
  GI50: 10.3 µM
  TGI: 24.7 µM
SN12C renal
  GI50: 15.3 µM
  TGI: 29 µM
HL-60(TB) leukemia
  GI50: 7.66 µM
  TGI: 24 µM
K-562 leukemia
  GI50: 3.76 µM
  TGI: 17.8 µM
M14 melanoma
  GI50: 13.6 µM
  TGI: 26.8 µM
PC-3 prostate
  GI50: 12.5 µM
  TGI: 27.7 µM
MDA-MB-468 breast
  GI50: 12.4 µM
  TGI: 26.2 µM
HCT-15 colon
  GI50: 11.7 µM
  TGI: 24.6 µM
NCI-H522 lung
  GI50: 13.9 µM
  TGI: 29.9 µM
SF-295 CNS
  GI50: 16.6 µM
  TGI: 30.9 µM
HS 578T breast
  GI50: 15.6 µM
  TGI: 34.6 µM
MDA-MB-435
  GI50: 16.8 µM
  TGI: 31.3 µM
NCI-H460 lung
  GI50: 14.3 µM
  TGI: 29.4 µM
DU-145 prostate
  GI50: 16.8 µM
  TGI: 31.3 µM
786-0 renal
  GI50: 13.8 µM
  TGI: 29.3 µM
RPMI-8226 leukemia
  GI50: 6.75 µM
  TGI: 24.6 µM
RXF 393 renal
  GI50: 7.3 µM
  TGI: 21.4 µM
COLO 205 colon
  GI50: 1830 nM
  TGI: 3.4 µM
HT29 colon
  GI50: 4.87 µM
  TGI: 17.3 µM
NCI-H23 lung
  GI50: 16 µM
  TGI: 30.4 µM
SK-MEL-28 melanoma
  GI50: 16.4 µM
  TGI: 30.2 µM
OVCAR-3 ovarian
  GI50: 15.5 µM
  TGI: 30.8 µM
